From US9073919B2, “Pyrazolo pyridine derivatives as NADPH oxidase inhibitors” (GENKYOTEX SA, priority 2007, dated 2015)

Columns and labels:
Assay type in all cases: cell-based, human
[1] = tested on: NOX; experiment: Chemiluminescence (luminol) ROS measurement in cells; conditions: % of the activity in control cells, 'usually'
Description: (§1) Extracellular hydrogen peroxide was measured using Amplex UltraRed (Molecular Probes). Cells were trypsinized (1× Trypsin-EDTA), collected by centrifugation, and resuspended in HBSS supplemented with 1% glucose. Cells were seeded into black 96-well plates at a density of 50,000 cells in 200 μl testing buffer (HBSS 1% glucose containing 0.005 U/mL horseradish peroxidase (Roche) and 50 μM Amplex Red in the presence or absence of compounds according to the invention. As a control, DPI was included at a final concentration of 10 μM The plates were placed in the fluorescent Optima Fluorescent plate reader and kept at 37° C. during 20 min. Fluorescence was measured for […] with excitation and emission wavelengths of 544 nm and 590 nm respectively. NOX activities were expressed as % of the activity in control cells. Residual activity of DPI-treated cells was usually <10%.
ROS was measured using the chemiluminescent probe luminol. Cells were cultured and plated as for Amplex Red except that the Amplex Red agent was replaced by 10 μg/mL luminol (Sigma 09235). Light emission was recorded continuously at 37° C. for 60 minutes using the luminescence function of the FluoStar Optima fluorescent plate reader. The mean of the four blank values was subtracted from each corrected value for each time point. NOX activities were expressed as % of the activity in control cells. […]

[2] = tested on: NOX; experiment: Nitroblue tetrazolium (NBT) superoxide test in cells; conditions: DPI 10 μM, % of the activity in control cells, 'usually'
Description: Human microglia cell line (HMC3, human microglia clone 3) (Janabi et al, 1995, Neurosci Lett 195:105) were cultured in MEM (Eagle's minimum essential medium) containing 10% FBS with 50 U/ml penicillin G sodium 50 μg/ml streptomycin sulfate, and incubated at 37° C. for 24 hours. IFN-γ (human IFN-γ, Roche. 11 040 596 001) was added to the culture medium for a final concentration of 10 ng/ml 24 h, before detection of O2^− formation. […]
Intracellular and extracellular superoxide was measured by a colorimetric technique using a quantitative nitroblue tetrazolium (NBT) test. SOD-inhibitable conversion of NBT to formazan, a fine blue precipitate, in the presence of superoxide anion was measured using Fluostar Optima spectrometer (BMG labtech). […] The absorption was measured at 630 nm. For calculation, the absorbance at 630 nm was normalized for each individual well. […] NOX activities were expressed as % of the activity in control cells. […]

[3] = tested on: NOX; experiment: H2DCF-DA fluorescence in TGF-β stimulated HUVEC; conditions: % of the activity in control cells, 'usually'
Description: HUVEC are cultured in endothelial basal medium supplemented with hydrocortisone (1 μg/mL, CalbioChem), bovine brain extract (12 μg/mL), gentamicin (50 μg/mL, CalbioChem), amphotericin B (50 ng/mL, CalBioChem EGF (10 ng/mL, and 10% FCS until the fourth passage. When the fifth passage was started, cells were cultured with a lower concentration of FCS (2%) in the absence of EGF, if not indicated otherwise. All experiments were done with cells of the fifth passage. The cells were incubated with OxLDL (oxidized low-density lipoprotein) or its buffer as control for 24 h, before detection of O2^− formation.
HUVEC were plated on coverslips and made quiescent overnight in 0.5% BSA before stimulation with TGF-β. Cells were loaded for 10 minutes with 5 μM CM-H2DCFDA in phenol-red-free medium in the dark and then treated with TGF-β (R&D Systems) in the presence or absence of compounds according to the invention. Cells were then visualized by immunofluorescence microscopy after fixation and staining of the nuclei with DAPI or examined live using confocal microscopy. DCF fluorescence was visualized at an excitation wavelength of 488 nm and emission at 515 to 540 nm. […] For calculation, the absorbance at […] was normalized to absorbance at […] for each individual well. […] NOX activities were expressed as % of the activity in control cells. […]

[4] = tested on: NOX; experiment: Amplex Red, extracellular hydrogen peroxide, DMSO-differentiated HL60 cells; conditions: DPI 10 μM, % of the activity in control cells, 'usually'
Description: Human acute myeloid leukemia cell line HL-60 was cultured in RPMI 1640 (Invitrogen) supplemented with 10% heat-inactivated calf serum, 2 mM glutamine, 100 U/mL penicillin (Sigma), and 100 μg streptomycin (Sigma) at 37° C. under a humidified atmosphere of 5% CO2. HL60 differentiation to the neutrophil phenotype was triggered by adding Me2SO (final concentration 1.25% v/v for 6 days) to the culture medium.
as §1

Measured: Residual activity of DPI-treated cells

c1ccc([I+]c2ccccc2)cc1 [DPI, Diphenyl-iodonium]
< 10%: all assays above
